Laboratory results taken from patent US8455240B2, “Use of thermophilic sulphate-reducing archaea for the implementation of a process for the degradation of hydrocarbons” (Institut de Recherche pour le Development (I.R.D.), priority 2005, dated 2013).
Where “and” joins values, the source holds several entries; their conditions need not be identical. Equal entries are not always repeated.

Experiments:
[1] = test system: strain L-3; assay: Sources of carbon and energy used by the strain L-3; assay type: cell-based, Archaeoglobus fulgidus CNCM I-3465 (strain L-3); details: for OD 580 nm Final / OD 580 nm Initial / H2S (480 nm): thiosulphate as electron acceptor
Method: (§1) Experimentally, 4 ml of Cord-Ruwish reagent comprising 50 mmol/l of HCl and 5 mmol/l of CuSO4 are added to 0.1 ml of sample. Copper sulphate (CuSO4) by reacting with hydrogen sulphide (H2S), forms a copper sulphide precipitate (CuS) after the reaction: CuSO4+H2S→CuS+H2SO4
(§2) According to this method, the CuS is assayed by spectrophotometry at 480 nm. The readings are carried out against a blank constituted by 4 ml of Cord-Ruwish reagent.
(§3) The analysis and quantification of the metabolites are carried out by HPLC by measuring the disappearance of the substrate and the appearance of different metabolism products.
The study of the growth of the strain L-3 in the presence of different sources of carbon and energy was carried out with thiosulphate as an electron acceptor. The monitoring was carried out by estimation of the cell biomass (OD 580 nm), by assay of the sulphide production (Cord-Ruwish). The results were confirmed by HPLC analyses, and completed in certain cases by a CO2 assay.

[2] = test system: Archaeoglobus fulgidus; assay: Screening for hydrocarbon degradation, A. fulgidus (sulphide production, Cord-Ruwish); assay type: cell-based; details: for sulphide production (OD 480) 0 d: aromatics solubilized in HMN; for ΔS tf-ti: final minus initial sulphide
Method: as §1, §2
(§4) The study of the hydrocarbon degradation abilities is an experiment which requires a particularly long incubation. Thus, it was carried out in Bellco tubes sealed with thick rubber stoppers.
(§5) For these experiments, tubes containing 10 ml of culture medium without substrate, are 10% inoculated, then the hydrocarbon is introduced by injection through the stopper.
(§6) The hydrocarbons chosen are model molecules belonging to the different classes of hydrocarbons, namely: • hexadecane (CH3(CH2)14CH3, C16), a saturated linear aliphatic hydrocarbon; • hexadecene (CH3(CH2)13CHCH2, C16:1), an unsaturated linear aliphatic hydrocarbon of biogenic origin; • dibenzothiophene (DBT, C12H8S), a sulphur-containing aromatic hydrocarbon.
(§7) The aliphatic hydrocarbons (C16; C16:1) are added to the corresponding tubes, at a rate of 0.04 ml/10 ml of culture medium. The aromatic hydrocarbons (DBT) are solubilized in 2,2,4,4,6,8,8-heptamethylnonane (HMN, C16H34) at a rate of 20 mg/ml of HMN, and 0.75 ml of this solution is injected into 10 ml of culture medium.
(§8) 3 tubes were produced for each test and control. The growth of the strains was monitored indirectly by the production of sulphide.
(§9) A subculture was carried out starting from the preceding experiment on naphthalene, DBT solubilized as previously in HMN, and on HMN alone, for the two strains studied.

[3] = test system: strain L-3; assay: Screening for hydrocarbon degradation, strain L-3 (sulphide production, Cord-Ruwish); assay type: cell-based, Archaeoglobus fulgidus CNCM I-3465 (strain L-3); details: for sulphide production (OD 480) 0 d: aromatics solubilized in HMN
Method: as §1, §2, §4, §5, §6, §7, §8, §9

[4] = test system: Archaeoglobus fulgidus (DSM 4304); assay: Degradation of different substrates by A. fulgidus as a function of the electron acceptor; assay type: cell-based; details: for ability of Archaeoglobus fulgidus to oxidize the substrate: thiosulphate or sulphate as electron acceptor
Method: as §1, §2, §3
(§10) The study of the degradation abilities of different substrates of the strain L-3 was based on a comparison with the collection strain, Archaeoglobus fulgidus (DSM 4304). The degradation of the substrates, by the two strains was monitored by a measurement of the cell biomass at 580 nm, a sulphide assay produced according to the Cord-Ruwish method, a study of the degradation metabolites by HPLC, completed by a CO2 assay with a GPC-Katharometer.
(§11) Two series of tests were prepared, one with thiosulphate, the other with sulphate as an electron acceptor.

[5] = test system: strain L-3; assay: Degradation of different substrates by the strain L-3 as a function of the electron acceptor; assay type: cell-based, Archaeoglobus fulgidus CNCM I-3465 (strain L-3); set-up: total H2S: unit not given here; details: for ability of the strain L-3 to degrade the substrate: thiosulphate or sulphate as electron acceptor
Method: as §1, §2, §3, §10, §11

[6] = test system: strain L-3; assay: Subculture on hydrocarbons, strain L-3 (sulphide production); assay type: cell-based, Archaeoglobus fulgidus CNCM I-3465 (strain L-3)
Method: as §1, §2, §9
(§12) For this subculture, apart from the tests containing the hydrocarbon (DBT, naphthalene (Naph), […]), and seeded with the previously chosen inoculum, abiotic controls (negative controls) containing the substrate (hydrocarbon) but not inoculated were produced for the purpose of quantifying the sulphide production which could be due to chemical reactions between the different constituents of the medium. In these controls there was no development in the concentration of sulphide over a period of 20 days (Table 4).

[7] = test system: A. fulgidus; assay: Subculture on hydrocarbons, A. fulgidus (sulphide production); assay type: cell-based, Archaeoglobus fulgidus
Method: as §1, §2, §9, §12

[8] = sulphate as electron acceptor, unit from b116
[9] = thiosulphate as electron acceptor
[10] = thiosulphate as electron acceptor, unit from b116
[11] = choice of the inoculum for the subculture, tubes of the screening

SMILES	OD 580 nm Final [1]	OD 580 nm Initial [1]	H2S (480 nm) ([1]; unit from b126)	final OD 580 ([4]; sulphate as electron acceptor)	initial OD 580 ([4]; sulphate as electron acceptor)	final OD 580 [4, 9]	initial OD 580 [4, 9]	final OD 580 ([5]; sulphate as electron acceptor)	initial OD 580 ([5]; sulphate as electron acceptor)	total H2S ([5]; sulphate as electron acceptor)	final OD 580 [5, 9]	initial OD 580 [5, 9]	total H2S [5, 9]	further results
CC(=O)O [Acetate]	0.0904 and 0.0812	0.0671 and 0.0771	0.4 mM and 0.3 mM											
CCCCCCCCCCCCCCCC [C16, hexadecane]														sulphide production (OD 480) 0 d [2]: 0.7 mM and 0.8 mM and 0.9 mM; sulphide production (OD 480) 70 d [2]: 1 mM and 0.5 mM and 0.8 mM; sulphide production (OD 480) 0 d [3]: 0.6 mM and 0.5 mM and 0.9 mM
O=CO [Formate]	0.0672 and 0.0759	0.0765 and 0.0875	0.2 mM and 0.4 mM	0.1 and 0.1157	0.0805 and 0.0853	0.1218 and 0.1208	0.1107 and 0.1183	0.0711 and 0.064	0.0585 and 0.0634	2.5 and 5	0.1048 and 0.1186	0.1003 and 0.1241	3.6 and 2.8	total H2S [4, 8]: 3.6 mM and 5 mM; total H2S [4, 10]: 5.8 mM and 7.4 mM; ability of Archaeoglobus fulgidus to oxidize the substrate [4]: capable of oxidizing; ability of the strain L-3 to degrade the substrate [5]: does not develop
O=C(CO)[C@@H](O)[C@H](O)[C@H](O)CO [Fructose, fructose]	0.1003 and 0.0893	0.0663 and 0.0818	0.3 mM											HPLC analyses, initial quantity of the substrate ([1]; no increase in biomass or sulphide, explained by isomerization at high temperature): reduction in the initial quantity of the substrate
O=C(O)/C=C/C(=O)O [Fumarate]				0.1122 and 0.14	0.0759 and 0.085	0.1399 and 0.1535	0.1085 and 0.117	0.1085 and 0.0899	0.0606 and 0.062	2.5 and 3.3	0.1431 and 0.1137	0.1083 and 0.0796	3.2 and 2.5	total H2S [4, 8]: 2.4 mM and 3.1 mM; total H2S ([4]; sulphate as electron acceptor, unit from b116, listed as fumarate): ≤ 3.1 mM; total H2S [4, 10]: 5.1 mM and 6.5 mM; total H2S ([4]; thiosulphate as electron acceptor, unit from b116, listed as fumarate): 6.5 mM; ability of Archaeoglobus fulgidus to oxidize the substrate [4]: capable of oxidizing; ability of the strain L-3 to degrade the substrate [5]: capable of degrading
c1ccc2ccccc2c1 [Naphthalene, naphthalene]														sulphide production (OD 480) 0 d [2]: 0.8 mM; sulphide production (OD 480) 10 d [2]: 0.4 mM and 0.6 mM and 0.8 mM; sulphide production (OD 480) 45 d ([2]; 45 d): 0.8 mM and 1.1 mM and 1.4 mM; sulphide production (OD 480) 60 d [2]: 0.7 mM and 1.2 mM; sulphide production (OD 480) 70 d [2]: 1.3 mM and 1.7 mM; H2S [2, 11]: 1.3 mM and 1.7 mM; ΔS tf-ti [2]: 0.5 mM and 0.9 mM; sulphide production (OD 480) 0 d [3]: 0.8 mM and 0.6 mM; sulphide production (OD 480) 10 d ([3]; 10 d): 0.4 mM and 0.3 mM and 0.6 mM; sulphide production (OD 480) 45 d [3]: 0.9 mM and 1 mM and 0.8 mM; sulphide production (OD 480) 60 d [3]: 0.6 mM and 0.5 mM; sulphide production (OD 480) 70 d [3]: 1.7 mM and 1.3 mM and 1.1 mM; H2S [3, 11]: 1.3 mM and 1.1 mM; sulphide production (OD 480) 0 d ([6]; 0 d): 0.2 mM (2×) and 0.3 mM; sulphide production (OD 480) 8 d ([6]; 8 d): 0.5 mM and 0.4 mM and 0.6 mM; sulphide production (OD 480) 22 d ([6]; 22 d): 0.9 mM and 0.5 mM and 0.8 mM; sulphide production (OD 480) 45 d ([6]; 45 d): 0.9 mM and 0.7 mM and 1.3 mM; ΔS tf-ti ([6]; final minus initial sulphide): 0.7 mM and 0.5 mM and 1 mM; sulphide production (OD 480) 0 d ([7]; 0 d): 0.2 mM; sulphide production (OD 480) 8 d ([7]; 8 d): 0.8 mM and 0.4 mM and 0.5 mM
c1ccc2c(c1)ccc1ccccc12 [Phenanthrene, phenanthrene]														sulphide production (OD 480) 10 d [2]: 1.1 mM and 0.8 mM and 1.4 mM; sulphide production (OD 480) 60 d [2]: 0.8 mM and 0.5 mM; ΔS tf-ti [2]: ≤ 0.5 mM; sulphide production (OD 480) 45 d [3]: 0.5 mM and 1 mM and 0.8 mM; sulphide production (OD 480) 60 d [3]: 0.4 mM and 0.5 mM and 0.3 mM; sulphide production (OD 480) 70 d [3]: 0.5 mM and 0.6 mM and 0.8 mM; ΔS tf-ti ([3]; final minus initial sulphide): ≤ 0.5 mM
CCC(=O)O [Propionate, propionate]	0.0871 and 0.072	0.0669 and 0.0717	0.3 mM											
CC(=O)C(=O)O [Pyruvate, pyruvate]	0.1315 and 0.1758	0.067 and 0.0713		0.1643 and 0.1575	0.1281 and 0.1377	0.3668 and 0.3489	0.1368 and 0.1351	0.0958 and 0.0944	0.0603 and 0.0636	3.5 and 3.3	0.1161 and 0.0863	0.0785 and 0.0911	4	H2S (480 nm) [1]: 5.2 mM; total H2S ([4]; sulphate as electron acceptor): 10.3 mM and 7.3 mM
